Reference: publication PMC9841523 (Journal of Medicinal Chemistry, 2022)

Legend:
NCI-H2122 NSCLC CDX = NCI-H2122 NSCLC CDX model; type: in vivo; details: RMC-6272 10 mg/kg ip once weekly; sotorasib 100 mg/kg po qd; single agents or combination
Protocol: groups when mean tumor volume reached 400–600 mm 3. Tumor and plasma samples were collected for PK and PD analysis at indicated time points after a single dose of indicated […]
doses. Everolimus was formulated in v/v/v/, 30/5/65 Propylene glycol/Tween 80/H 2O.
NCI-H2122 xenograft studies. Female Balb/c nude mice (Beijing V.R Biotechnology Co. […]
per inoculation. When mean tumor volume reached between 150–200 mm 3, mice were […]
Transcutol/Solutol HS 15/H 2O. Sotorasib (AMG 510) was administered by oral gavage at 100 mg/kg daily and formulated in 2% (w/v) HPMC E-50, 0.5% Tween 80 in 50 mM sodium citrate […]
In vivo pharmacodynamics. Snap frozen tumors collected were homogenized with MSD complete lysis buffer (as prepared according to Meso Scale Discovery kit protocol) using PreCellys Bead Shaker (Bertin Instruments) according to manufacturer's protocol. Phospho-4E-BP1(Thr37/46) Whole Cell Lysate Kit (Meso Scale Discovery) was used to quantify phosphorylation of 4E-BP1 in the tumors according to manufacturer's protocol.
Expression and purification of FKBP12, FRB domain, and RHEB-GTPγS. DNA pET28

[1] = system: RSK1 domain1, RSK2 domain1, RSK3 domain1; experiment: KiNativ kinase panel; type: cell-based, human; details: 1 μM; MCF-7 Cells; Lys2; DLKPENILLDEEGHIK
Wnk1, Wnk2, Wnk3 = experiment: KiNativ kinase panel; type: cell-based, human; details: 1 μM; MCF-7 Cells; Lys2; DLKCDNIFITGPTGSVK
p-P70S6K Thr389 = experiment: AlphaLISA/MSD analysis of S6K phosphorylation in MDA-MB-468 cells; type: cell-based; details: Homo sapiens, MDA-MB-468, read-out: pS6K IC50
Protocol: (§1) Cell culture and reagents. Cells were obtained from ATCC, grown in appropriate medium supplemented with 10% fetal bovine serum and 1% penicillin/streptomycin and maintained at 37 °C in a humidified incubator at 5% CO 2.
(§2) AlphaLISA and MesoScale Discovery (MSD) analysis of 4EBP1, S6K and AKT phosphorylation. mTOR substrate phosphorylation in MDA-MB-468 cells was assayed using AlphaLISA SureFire Ultra kits for p4EBP1 Thr37/46, p-P70S6K Thr389 and p-AKT1/2/3 Ser473 (PerkinElmer), and MSD Multi-Array Assay Systems for Phospho-4EBP1 (Thr37/46) and Phospho-AKT (Ser473) (MSD). Cells were seeded at 25,000 cells per well and exposed the next day to serial three-fold dilutions of compounds in complete medium with 0.1% dimethylsulfoxide (DMSO). After indicated incubation times, cells were lysed and AlphaLISA or MSD performed according to the manufacturers’ protocols. Samples were read using an EnVision Multilabel Plate Reader (PerkinElmer) using standard AlphaLISA settings or using an MSD plate reader. Data were plotted as a function of logM [compound] with a sigmoidal concentration response (variable slope) model fitted to the data to estimate the inhibitor half-maximum effective concentration (EC 50) in Prism 7 (GraphPad). Alternatively, results were analyzed as percentage of control in which 0% was set as signal from 1 μM Torin1 and 100% was set as the mean of DMSO wells on each plate, and inhibitor EC 50 was estimated as described

[2] = system: 4EBP1 T37/T46 phosphorylation (mTORC1); experiment: AlphaLISA/MSD analysis of 4EBP1 phosphorylation in MDA-MB-468 cells; type: cell-based; details: Homo sapiens, MDA-MB-468, read-out: p4EBP1 IC50
Protocol: as §1, §2

[3] = system: AKT S473 phosphorylation (mTORC2); experiment: AlphaLISA/MSD analysis of AKT phosphorylation in MDA-MB-468 cells; type: cell-based; details: Homo sapiens, MDA-MB-468, read-out: pAKT IC50
Protocol: as §1, §2

[4] = molecular target: T1, α1A(h) (antagonist radioligand) (Homo sapiens, UniProt P35348); experiment: Eurofins Safety Screen 44; type: binding; details: read-out: % Inhibition of Control Values
T1 construct: purchased ActivX Biosciences (KiNativ)

[5] = molecular target: T2, α2A(h) (antagonist radioligand) (Homo sapiens, UniProt P08913); experiment: Eurofins Safety Screen 44; type: binding; details: read-out: % Inhibition of Control Values
T2 construct: purchased ActivX Biosciences (KiNativ)

[6] = molecular target: T3, β1(h) (agonist radioligand) (Homo sapiens, UniProt P08588); experiment: Eurofins Safety Screen 44; type: binding; details: read-out: % Inhibition of Control Values
T3 construct: purchased ActivX Biosciences (KiNativ)

[7] = molecular target: T4, β2(h) (antagonist radioligand) (Homo sapiens, UniProt P07550); experiment: Eurofins Safety Screen 44; type: binding; details: read-out: % Inhibition of Control Values
T4 construct: purchased ActivX Biosciences (KiNativ)

[8] = molecular target: T5, CB1(h) (agonist radioligand) (Homo sapiens, UniProt P21554); experiment: Eurofins Safety Screen 44; type: binding; details: read-out: % Inhibition of Control Values
T5 construct: purchased ActivX Biosciences (KiNativ)

[9] = molecular target: T6, ETA(h) (agonist radioligand) (Homo sapiens, UniProt P25101); experiment: Eurofins Safety Screen 44; type: binding; details: read-out: % Inhibition of Control Values
T6 construct: purchased ActivX Biosciences (KiNativ)

[10] = system: NMDA (antagonist radioligand); experiment: Eurofins Safety Screen 44; type: binding; details: 10 µM
[11] = molecular target: T7, H2(h) (antagonist radioligand) (Homo sapiens, UniProt P25021); experiment: Eurofins Safety Screen 44; type: binding; details: read-out: % Inhibition of Control Values
T7 construct: purchased ActivX Biosciences (KiNativ)

[12] = molecular target: T8, M3(h) (antagonist radioligand) (Homo sapiens, UniProt P20309); experiment: Eurofins Safety Screen 44; type: binding; details: read-out: % Inhibition of Control Values
T8 construct: purchased ActivX Biosciences (KiNativ)

[13] = molecular target: T9, 5-HT1B (h) (antagonist radioligand) (Homo sapiens, UniProt P28222); experiment: Eurofins Safety Screen 44; type: binding; details: read-out: % Inhibition of Control Values
T9 construct: purchased ActivX Biosciences (KiNativ)

[14] = molecular target: T10, 5-HT2A(h) (agonist radioligand) (Homo sapiens, UniProt P28223); experiment: Eurofins Safety Screen 44; type: binding; details: read-out: % Inhibition of Control Values
T10 construct: purchased ActivX Biosciences (KiNativ)

[15] = molecular target: T11, 5-HT3(h) (antagonist radioligand) (Homo sapiens, UniProt P46098); experiment: Eurofins Safety Screen 44; type: binding; details: read-out: % Inhibition of Control Values
T11 construct: purchased ActivX Biosciences (KiNativ)

[16] = system: Ca2+ channel (L, dihydropyridine site) (antagonist radioligand); experiment: Eurofins Safety Screen 44; type: binding; details: 10 µM
[17] = system: KV channel (antagonist radioligand); experiment: Eurofins Safety Screen 44; type: binding; details: 10 µM
[18] = molecular target: T12, dopamine transporter(h) (antagonist radioligand) (Homo sapiens, UniProt Q01959); experiment: Eurofins Safety Screen 44; type: binding; details: read-out: % Inhibition of Control Values
T12 construct: Eurofins (ran the panel)

COX2(h) = molecular target: T13, COX2(h) (Homo sapiens, UniProt P35354); experiment: Eurofins Safety Screen 44; type: biochemical; details: read-out: % Inhibition of Control Values
T13 construct: Eurofins (ran the panel)

PDE3A (h) = molecular target: T14, PDE3A (h) (Homo sapiens, UniProt Q14432); experiment: Eurofins Safety Screen 44; type: biochemical; details: read-out: % Inhibition of Control Values
T14 construct: Eurofins (ran the panel)

hERG potassium channel = hERG potassium channel (Homo sapiens, UniProt Q12809); experiment: Eurofins Safety Screen 44; details: probe [3H] Dofetilide
Sequence of hERG potassium channel (Q12809 whole entry): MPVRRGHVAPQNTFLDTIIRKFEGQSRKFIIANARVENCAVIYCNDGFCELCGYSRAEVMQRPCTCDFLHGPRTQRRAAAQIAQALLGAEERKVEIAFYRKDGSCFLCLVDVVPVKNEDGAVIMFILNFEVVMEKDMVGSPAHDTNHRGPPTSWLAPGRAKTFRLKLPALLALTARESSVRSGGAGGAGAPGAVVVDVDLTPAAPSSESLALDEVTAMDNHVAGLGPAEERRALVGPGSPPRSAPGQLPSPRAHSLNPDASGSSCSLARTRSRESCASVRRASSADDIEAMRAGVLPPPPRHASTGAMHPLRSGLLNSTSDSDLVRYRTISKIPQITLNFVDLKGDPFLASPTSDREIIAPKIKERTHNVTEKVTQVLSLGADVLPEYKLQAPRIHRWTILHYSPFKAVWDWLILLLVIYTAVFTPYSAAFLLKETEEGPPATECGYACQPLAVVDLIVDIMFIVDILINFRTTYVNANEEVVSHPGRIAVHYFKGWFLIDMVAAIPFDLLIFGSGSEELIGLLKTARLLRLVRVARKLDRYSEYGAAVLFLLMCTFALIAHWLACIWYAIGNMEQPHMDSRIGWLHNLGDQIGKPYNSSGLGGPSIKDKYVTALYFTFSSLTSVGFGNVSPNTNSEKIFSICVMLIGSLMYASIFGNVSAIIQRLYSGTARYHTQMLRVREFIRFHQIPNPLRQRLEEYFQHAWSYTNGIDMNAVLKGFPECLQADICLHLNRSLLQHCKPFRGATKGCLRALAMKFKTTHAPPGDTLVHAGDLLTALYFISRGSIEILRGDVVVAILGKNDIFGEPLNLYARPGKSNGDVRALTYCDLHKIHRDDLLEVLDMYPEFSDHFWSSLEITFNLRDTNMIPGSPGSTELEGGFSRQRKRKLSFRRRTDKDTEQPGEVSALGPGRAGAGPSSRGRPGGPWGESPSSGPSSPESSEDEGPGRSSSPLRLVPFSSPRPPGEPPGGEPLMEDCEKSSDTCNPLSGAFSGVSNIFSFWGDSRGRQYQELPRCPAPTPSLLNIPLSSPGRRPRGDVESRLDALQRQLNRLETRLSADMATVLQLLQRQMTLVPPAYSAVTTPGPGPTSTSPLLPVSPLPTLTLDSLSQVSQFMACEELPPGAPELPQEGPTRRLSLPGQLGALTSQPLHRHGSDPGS

T2 sequence (P08913 whole entry): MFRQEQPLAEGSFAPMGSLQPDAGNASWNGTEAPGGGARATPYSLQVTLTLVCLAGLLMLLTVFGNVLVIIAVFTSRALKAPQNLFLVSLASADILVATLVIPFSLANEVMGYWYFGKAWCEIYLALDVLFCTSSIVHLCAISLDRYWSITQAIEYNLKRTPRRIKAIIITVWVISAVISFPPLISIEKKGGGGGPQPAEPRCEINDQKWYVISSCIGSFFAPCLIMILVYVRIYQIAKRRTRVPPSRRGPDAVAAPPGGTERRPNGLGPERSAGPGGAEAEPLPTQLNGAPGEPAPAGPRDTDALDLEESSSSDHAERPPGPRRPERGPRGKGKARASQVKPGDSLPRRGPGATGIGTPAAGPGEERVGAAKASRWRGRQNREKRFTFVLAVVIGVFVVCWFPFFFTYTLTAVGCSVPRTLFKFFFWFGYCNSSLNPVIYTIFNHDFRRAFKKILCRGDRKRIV
T13 sequence (P35354 18-604): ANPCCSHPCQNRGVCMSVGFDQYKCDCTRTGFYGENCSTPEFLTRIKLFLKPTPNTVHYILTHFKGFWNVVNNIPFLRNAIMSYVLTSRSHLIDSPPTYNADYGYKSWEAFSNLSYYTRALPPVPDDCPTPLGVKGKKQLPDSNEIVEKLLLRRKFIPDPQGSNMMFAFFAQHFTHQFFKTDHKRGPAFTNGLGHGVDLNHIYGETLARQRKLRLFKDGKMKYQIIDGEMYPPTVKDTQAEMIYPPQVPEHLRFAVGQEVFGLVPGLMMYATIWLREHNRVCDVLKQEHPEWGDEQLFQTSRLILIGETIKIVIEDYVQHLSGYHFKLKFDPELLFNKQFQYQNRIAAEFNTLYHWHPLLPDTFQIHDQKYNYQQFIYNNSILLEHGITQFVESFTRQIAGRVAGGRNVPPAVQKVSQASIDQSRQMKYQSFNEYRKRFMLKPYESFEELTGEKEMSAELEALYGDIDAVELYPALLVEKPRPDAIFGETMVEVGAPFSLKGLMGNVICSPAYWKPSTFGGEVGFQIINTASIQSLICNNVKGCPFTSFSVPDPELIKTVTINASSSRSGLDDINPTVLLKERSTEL
T8 sequence (P20309 whole entry): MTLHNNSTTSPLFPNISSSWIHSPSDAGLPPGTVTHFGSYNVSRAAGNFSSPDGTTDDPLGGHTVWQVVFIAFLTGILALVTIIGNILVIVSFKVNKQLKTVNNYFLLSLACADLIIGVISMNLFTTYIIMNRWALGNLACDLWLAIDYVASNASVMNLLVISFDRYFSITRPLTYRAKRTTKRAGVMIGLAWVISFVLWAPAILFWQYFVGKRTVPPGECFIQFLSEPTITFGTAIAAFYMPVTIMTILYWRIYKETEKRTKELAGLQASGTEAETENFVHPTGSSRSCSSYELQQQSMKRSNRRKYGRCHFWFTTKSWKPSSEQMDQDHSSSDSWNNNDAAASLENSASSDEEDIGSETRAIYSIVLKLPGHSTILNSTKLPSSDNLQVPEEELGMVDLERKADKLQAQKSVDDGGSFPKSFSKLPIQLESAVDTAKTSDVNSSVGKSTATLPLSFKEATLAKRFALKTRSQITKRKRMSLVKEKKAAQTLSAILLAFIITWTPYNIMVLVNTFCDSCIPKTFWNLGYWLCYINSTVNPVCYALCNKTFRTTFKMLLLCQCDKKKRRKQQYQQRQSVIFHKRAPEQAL
T9 sequence (P28222 whole entry): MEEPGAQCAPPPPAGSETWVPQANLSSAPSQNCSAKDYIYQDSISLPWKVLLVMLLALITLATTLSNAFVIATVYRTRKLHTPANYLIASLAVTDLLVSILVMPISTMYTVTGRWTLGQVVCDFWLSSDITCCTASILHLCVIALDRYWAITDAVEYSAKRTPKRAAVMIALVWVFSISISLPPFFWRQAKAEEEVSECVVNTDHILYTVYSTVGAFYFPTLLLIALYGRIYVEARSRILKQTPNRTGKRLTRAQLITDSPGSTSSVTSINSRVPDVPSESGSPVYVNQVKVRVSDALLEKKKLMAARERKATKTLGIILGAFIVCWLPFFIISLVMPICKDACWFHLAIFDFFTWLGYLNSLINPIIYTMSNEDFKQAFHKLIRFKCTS
T11 sequence (P46098 24-478): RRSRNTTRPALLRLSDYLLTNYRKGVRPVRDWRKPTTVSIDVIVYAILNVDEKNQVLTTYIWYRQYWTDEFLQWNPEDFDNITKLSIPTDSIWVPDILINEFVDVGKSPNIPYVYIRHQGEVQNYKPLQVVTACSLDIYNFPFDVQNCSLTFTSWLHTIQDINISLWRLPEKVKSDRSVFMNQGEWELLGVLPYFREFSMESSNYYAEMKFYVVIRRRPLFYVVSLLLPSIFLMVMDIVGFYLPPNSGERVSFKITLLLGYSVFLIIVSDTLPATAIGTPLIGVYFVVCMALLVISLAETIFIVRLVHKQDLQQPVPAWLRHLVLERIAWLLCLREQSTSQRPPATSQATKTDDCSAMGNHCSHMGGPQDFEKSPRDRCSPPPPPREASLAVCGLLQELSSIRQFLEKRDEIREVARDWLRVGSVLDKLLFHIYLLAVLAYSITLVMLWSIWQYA
T5 sequence (P21554 whole entry): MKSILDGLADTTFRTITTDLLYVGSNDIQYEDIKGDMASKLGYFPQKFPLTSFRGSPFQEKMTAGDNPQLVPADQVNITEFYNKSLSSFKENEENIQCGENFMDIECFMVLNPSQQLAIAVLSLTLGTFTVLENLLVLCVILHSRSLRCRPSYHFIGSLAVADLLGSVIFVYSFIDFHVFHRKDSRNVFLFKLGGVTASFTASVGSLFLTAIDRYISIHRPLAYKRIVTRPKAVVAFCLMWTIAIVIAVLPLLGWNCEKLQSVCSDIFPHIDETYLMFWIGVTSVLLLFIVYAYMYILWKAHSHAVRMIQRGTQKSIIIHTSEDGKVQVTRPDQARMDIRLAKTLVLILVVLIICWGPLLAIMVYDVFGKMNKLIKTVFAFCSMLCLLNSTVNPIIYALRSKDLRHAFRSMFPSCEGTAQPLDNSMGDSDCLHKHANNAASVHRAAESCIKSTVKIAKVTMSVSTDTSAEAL
T3 sequence (P08588 whole entry): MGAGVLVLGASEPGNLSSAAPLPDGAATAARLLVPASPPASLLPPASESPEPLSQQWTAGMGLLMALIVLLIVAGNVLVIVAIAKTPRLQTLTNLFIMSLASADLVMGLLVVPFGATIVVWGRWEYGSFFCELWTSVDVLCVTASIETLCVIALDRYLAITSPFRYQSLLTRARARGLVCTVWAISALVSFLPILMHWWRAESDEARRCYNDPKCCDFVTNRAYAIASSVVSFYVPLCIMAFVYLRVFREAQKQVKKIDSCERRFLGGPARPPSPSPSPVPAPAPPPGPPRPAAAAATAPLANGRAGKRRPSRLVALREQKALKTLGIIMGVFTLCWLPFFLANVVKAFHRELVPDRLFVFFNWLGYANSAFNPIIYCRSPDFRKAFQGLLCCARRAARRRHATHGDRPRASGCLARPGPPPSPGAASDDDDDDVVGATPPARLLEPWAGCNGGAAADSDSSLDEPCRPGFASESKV
T4 sequence (P07550 whole entry): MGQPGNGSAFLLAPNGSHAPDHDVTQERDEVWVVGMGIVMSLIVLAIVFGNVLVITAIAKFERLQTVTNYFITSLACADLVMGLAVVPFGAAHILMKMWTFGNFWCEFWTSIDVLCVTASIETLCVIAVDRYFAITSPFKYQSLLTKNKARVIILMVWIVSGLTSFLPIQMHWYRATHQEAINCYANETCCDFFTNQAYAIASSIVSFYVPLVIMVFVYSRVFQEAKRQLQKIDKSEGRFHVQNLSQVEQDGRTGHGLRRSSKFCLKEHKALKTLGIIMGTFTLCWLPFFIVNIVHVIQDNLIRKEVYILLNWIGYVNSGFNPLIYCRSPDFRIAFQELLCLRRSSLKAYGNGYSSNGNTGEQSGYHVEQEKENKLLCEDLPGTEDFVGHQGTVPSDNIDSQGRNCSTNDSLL

## CO[C@H]1C[C@@H]2CC[C@@H](C)[C@@](O)(O2)C(=O)C(=O)N2CCCC[C@H]2C(=O)O[C@H]([C@H](C)C[C@@H]2CC[C@@H](OC(=O)NCCOCCOCCOCCOCCOCCOCCOCCOCCC(=O)NCCS(=O)(=O)c3ccc(C(=O)N4CCOc5ccc(-c6ccc(N)nc6)cc5C4)c(C)c3F)[C@H](OC)C2)C[C@@H](O)[C@H](C)/C=C(\C)[C@@H](O)[C@@H](OC)C(=O)[C@H](C)C[C@H](C)/C=C/C=C/C=C/1C [compound 40]
NCI-H2122 NSCLC CDX
  antitumor activity (tumor regressions) in NCI-H2122 CDX model: Neither
[1]
  KiNativ Kinase Panel Data: 27.4
Wnk1, Wnk2, Wnk3
  KiNativ Kinase Panel Data: -40.3

## CO[C@H]1C[C@@H]2CC[C@@H](C)[C@@](O)(O2)C(=O)C(=O)N2CCCC[C@H]2C(=O)O[C@H]([C@H](C)C[C@@H]2CC[C@@H](OC(=O)NCCOCCOCCOCCOCCOCCOCCOCCOCCC(=O)N3CCc4cc(Cn5nc(-c6ccc7oc(N)nc7c6)c6c(N)ncnc65)ccc4C3)[C@H](OC)C2)C[C@@H](O)[C@H](C)/C=C(\C)[C@@H](O)[C@@H](OC)C(=O)[C@H](C)C[C@H](C)/C=C/C=C/C=C/1C [compound 38]
p-P70S6K Thr389
  IC50: 0.14 nM
[2]
  IC50: 0.48 nM
[3]
  IC50: 19 nM
[4]
  inhibition at 10 µM: 0.6%
[5]
  inhibition at 10 µM: -2.1%
[6]
  inhibition at 10 µM: 3%
[7]
  inhibition at 10 µM: -3.3%
[8]
  inhibition at 10 µM: -26.1%
[9]
  inhibition at 10 µM: 16.8%
[10]
  % Inhibition of Control Values: 13.7%
[11]
  inhibition at 10 µM: -1.1%
[12]
  inhibition at 10 µM: -14.3%
[13]
  inhibition at 10 µM: 13.1%
[14]
  inhibition at 10 µM: -28.9%
[15]
  inhibition at 10 µM: -4.6%
[16]
  % Inhibition of Control Values: -45.0%
[17]
  % Inhibition of Control Values: -8.0%
[18]
  inhibition at 10 µM: -1.5%
COX2(h)
  inhibition at 10 µM: 4.4%
PDE3A (h)
  inhibition at 10 µM: -47.2%
hERG potassium channel
  inhibition at 10 µM: -1.2%
